{
  "source": "patent US9636338B2",
  "about": "“Phenyl-dihydropyridine derivatives as inhibitors of aldosterone synthase” (Hoffmann-La Roche Inc., priority 2013, dated 2017)",
  "origin": "cited, not measured here",
  "biological_target": "CYP11B2 (Homo sapiens (Human), UniProt P19099)",
  "sequence (P19099 25-503)": "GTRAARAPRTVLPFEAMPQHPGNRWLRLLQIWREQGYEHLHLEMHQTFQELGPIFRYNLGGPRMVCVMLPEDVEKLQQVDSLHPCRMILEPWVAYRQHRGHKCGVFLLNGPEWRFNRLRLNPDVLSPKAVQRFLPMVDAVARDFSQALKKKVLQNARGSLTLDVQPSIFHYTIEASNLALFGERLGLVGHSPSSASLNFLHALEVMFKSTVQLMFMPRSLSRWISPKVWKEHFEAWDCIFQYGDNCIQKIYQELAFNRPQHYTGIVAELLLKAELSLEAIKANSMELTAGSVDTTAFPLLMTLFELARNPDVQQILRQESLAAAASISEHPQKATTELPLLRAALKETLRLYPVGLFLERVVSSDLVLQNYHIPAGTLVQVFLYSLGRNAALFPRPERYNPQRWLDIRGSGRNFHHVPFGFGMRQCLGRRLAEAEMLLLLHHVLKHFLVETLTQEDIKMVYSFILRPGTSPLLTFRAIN",
  "details": "patients with primary aldosteronism; oral; cited from earlier work",
  "data": [
    {"smiles": "N#Cc1ccc([C@H]2CCc3cncn32)c(F)c1", "note": "[LCI699]", "values": [
      {"measurement": "blood pressure", "value": "mildly decreased"},
      {"measurement": "circulating aldosterone levels", "value": "significantly lower"},
      {"measurement": "hypokalemia", "value": "corrected"}
    ]}
  ]
}
